Several values for one entry are separate records, joined by “and”; a condition that tells them apart may be missing. Identical values can stand only once.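 These data come from cells grown in 96-well plates and exposed to compound for 48 hours at five concentrations. GI50 = concentration required for 50% inhibition of growth. TGI is the concentration that stops growth completely.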
Key:
Assay in all cases: growth of human tumour cells (NCI), 48 h
[1] = tested on: NCI-H226 lung
[2] = tested on: LOX IMVI melanoma
[3] = tested on: K-562 leukemia
[4] = tested on: U251 CNS
[5] = tested on: OVCAR-4 ovarian
[6] = tested on: A498 renal
[7] = tested on: HOP-62 NSCLC
[8] = tested on: NCI-H23 lung
[9] = tested on: TK-10 renal
[10] = tested on: SW-620 colon
[11] = tested on: RPMI-8226 leukemia
[12] = tested on: UACC-257 melanoma
[13] = tested on: CAKI-1 renal
[14] = tested on: SF-295 CNS

| Structure (SMILES) | TGI [1] | TGI [2] | TGI [3] | TGI [4] | TGI [5] | TGI [6] | TGI [7] | TGI [8] | TGI [9] | TGI [10] | TGI [11] | TGI [12] | TGI [13] | TGI [14] | GI50 [1] | GI50 [3] | GI50 [5] | GI50 [7] | GI50 [13] | GI50 [14] |
| --- | --- | --- | --- | --- | --- | --- | --- | --- | --- | --- | --- | --- | --- | --- | --- | --- | --- | --- | --- | --- |
| CCCCOC(=O)C1C2CCC(O2)C1C(=O)OCCCC (configuration not stated) | > 100 µM | > 60.7 µM | > 100 µM | > 100 µM | > 100 µM | > 100 µM | > 100 µM | > 100 µM | > 100 µM | > 22.9 µM | > 68.5 µM | > 92.2 µM | > 100 µM | > 100 µM | – | – | – | – | – | – |
| O=C1C(Cl)C2(CC(/C=C/c3ccccc3Cl)=NN2c2cccc(S(=O)(=O)O)c2)N1c1nc2ccccc2s1 (configuration not stated) | > 100 µM | 27.4 µM | > 100 µM | > 100 µM | > 100 µM | > 100 µM | – | > 100 µM | 84.6 µM | > 100 µM | 89.9 µM | > 100 µM | 38.6 µM | – | – | – | – | – | – | – |
| COC(=O)C(=O)C(C(=O)C(=O)Nc1ccc(F)cc1)c1nc2ccc([N+](=O)[O-])cc2[nH]c1=O (configuration not stated) | > 100 µM | > 100 µM | > 100 µM | > 100 µM | > 100 µM | > 100 µM | > 100 µM | > 100 µM | > 100 µM | > 100 µM | > 100 µM | > 100 µM | > 100 µM | > 100 µM | – | – | – | – | – | – |
| CCOP(=O)(OCC)/C(C#N)=C/c1ncc[nH]1 | > 100 µM | > 100 µM | > 100 µM | > 100 µM | > 100 µM | > 100 µM | > 100 µM | > 100 µM | – | > 100 µM | > 100 µM | > 100 µM | > 100 µM | > 100 µM | – | – | – | – | – | – |
| C=CCN1C(=O)/C(=C/c2ccc(OC)cc2)N=C1SC/C=C/C | > 100 µM | > 100 µM | > 100 µM | > 100 µM | > 100 µM | > 100 µM | > 100 µM | > 100 µM | > 100 µM | > 100 µM | > 100 µM | > 100 µM | > 100 µM | > 100 µM | – | – | – | – | – | – |
| Nc1ccnc(=O)[nH]1 | > 100 µM | > 100 µM | > 100 µM | > 100 µM | > 100 µM | > 100 µM | > 100 µM | – | > 100 µM | > 100 µM | > 100 µM | > 100 µM | > 100 µM | > 100 µM | – | – | – | – | – | – |
| CCOC(=O)P(=O)(O)c1ccc(N(C)Cc2ccccc2)cc1 | > 100 µM | > 100 µM | > 100 µM | > 100 µM | > 100 µM | > 100 µM | > 100 µM | > 100 µM | > 100 µM | > 100 µM | > 100 µM | > 100 µM | > 100 µM | > 100 µM | – | – | – | – | – | – |
| N#Cc1c(-c2ccccc2)cc(-c2ccccc2)n(C2OC(CO)C(O)C(O)C2O)c1=S (configuration not stated) | 49.1 µM and > 100 µM | 37.7 µM and 92.3 µM | 41.4 µM and > 100 µM | 35.9 µM | > 100 µM | 52.5 µM | > 100 µM | 58.9 µM and 89.7 µM | > 100 µM | > 100 µM | 56.3 µM and > 100 µM | – | > 100 µM | 44.4 µM and > 100 µM | 22.3 µM and 69.8 µM | 13.7 µM and 29.4 µM | 37.1 µM and > 100 µM | 34.3 µM and 72.8 µM | 38.1 µM and > 100 µM | 19.5 µM and 41.1 µM |
| Cn1cc2ccccc2c1-c1nc(F)nc(F)n1 | > 100 µM | > 100 µM | > 100 µM | > 100 µM | > 100 µM | > 100 µM | > 100 µM | > 100 µM | > 100 µM | > 100 µM | 90.5 µM | – | > 100 µM | > 100 µM | – | – | – | – | – | – |
| CN(C)Nc1cc(=O)[nH]c(=O)[nH]1 | > 100 µM | > 100 µM | > 100 µM | > 100 µM | > 100 µM | > 100 µM | > 100 µM | – | > 100 µM | > 100 µM | > 100 µM | > 100 µM | – | > 100 µM | – | – | – | – | – | – |
| CC(=O)NC1C(OCc2ccccc2)OC(CO)C(O)C1OC(C)C(=O)NC(C(=O)N[C@@H](CCC(=O)NCCNCCNc1c2ccccc2nc2cccc([N+](=O)[O-])c12)C(N)=O)C(C)C (some centres not stated) | > 100 µM | > 100 µM | 19.9 µM | > 100 µM | > 100 µM | > 100 µM | > 100 µM | > 100 µM | > 100 µM | 58.5 µM | 58.7 µM | – | > 100 µM | > 100 µM | – | – | – | – | – | – |
| Cc1cc2c(cc1-c1cc3c(cc1C)C(C(C)C)=C(O)C(=O)/C3=C\Nc1c3ccccc3nc3ccccc13)/C(=C/Nc1c3ccccc3nc3ccccc13)C(=O)C(O)=C2C(C)C | 5.53 µM | – | – | 13.7 µM | 12.8 µM | 21.9 µM | 16.6 µM | 15 µM | – | 13.3 µM | > 100 µM | 16.6 µM | – | 12.9 µM | – | – | – | – | – | – |
| C=C(C)C1=CCC[C@]2(C1)N=C(OC)[C@@H](C(C)C)N=C2OC | > 100 µM | – | – | > 100 µM | > 100 µM | > 100 µM | > 100 µM | > 100 µM | > 100 µM | > 100 µM | 47.9 µM | > 100 µM | > 100 µM | > 100 µM | – | – | – | – | – | – |
| COc1cc2c(oc(=O)c3c4oc([Si](C)(C)C)cc4cc(OC)c23)c2cccc(OCc3ccccc3)c12 | > 94.4 µM | > 100 µM | > 100 µM | – | > 88.5 µM | > 100 µM | 47.6 µM | 35.6 µM | > 66.8 µM | > 100 µM | > 87 µM | > 100 µM | 41.2 µM | 50.9 µM | – | – | – | – | – | – |
| Cn1c(=O)c(Br)c(C=O)n(CCO[N+](=O)[O-])c1=O | > 100 µM | 5.51 µM | 8.82 µM | 9.77 µM | – | 33.4 µM | 37.5 µM | 19.4 µM | 15.7 µM | 5.45 µM | 7.42 µM | – | – | – | – | – | – | – | – | – |
| COC1(OC)c2no[n+]([O-])c2CCC1O (configuration not stated) | > 100 µM | > 100 µM | > 100 µM | – | > 100 µM | > 100 µM | > 100 µM | > 100 µM | > 100 µM | > 100 µM | > 100 µM | > 100 µM | > 100 µM | > 100 µM | – | – | – | – | – | – |
| NC(N)=N/N=C/c1c(-c2ccc(Cl)cc2)nc2sccn12 | 7.49 µM | – | 14.3 µM | 3.59 µM | 4.24 µM | 13.2 µM | 3.56 µM | 19.9 µM | 6.53 µM | 3.04 µM | 7.04 µM | 3.62 µM | 10.9 µM | 3.13 µM | – | – | – | – | – | – |

From PubChem BioAssay (NCI)
